In publication PMC6199744, “Development of Chemical Proteomics for the Folateome and Analysis of the Kinetoplastid Folateome” (ACS Infectious Diseases, 2018):
Read-outs that look alike come from different tables or passages of the source.

Legend:
[1] = test system: phenylalanine-4-hydroxylase (PAH); assay: Multitargeted bead mixture competition; type: binding, L. major; details: for binding and competition to phenylalanine-4-hydroxylase (PAH): bead mixture, L. major lysate; for fold change: protein LMJF.28.1280 PHENYLALANINE-4-HYDROXYLASE, vehicle control = 1; for fold change vs vehicle control: protein LMJF.28.1280 PHENYLALANINE-4-HYDROXYLASE,PHENYLALANINE-4-HYDROXYLASE, PUTATIVE
TB927.8.6460 = assay: Multitargeted bead mixture competition; type: binding, T. brucei; details: for fold change: CONSERVED, vehicle control = 1
DHCH = assay: Multitargeted bead mixture competition; type: binding, L. major; details: CYTOPLASMIC, PUTATIVE; for fold change: vehicle control = 1
[2] = test system: haloacid dehalogenase-like hydrolase (LmjF.28.1370); assay: Multitargeted bead mixture competition; type: binding, Leishmania; details: for fold change: protein LMJF.28.1370 HALOACID DEHALOGENASE-LIKE HYDROLASE, PUTATIVE, vehicle control = 1
DHFR-TS = DHFR-TS (Leishmania major, UniProt P07382); type: binding; details: for fold change: LMJF.06.0860 DIH[…]-T[…], vehicle control = 1
DHFR = target: T1, DHFR (Homo sapiens, UniProt P00374); assay: Multitargeted bead mixture competition, HeLa cell extract; type: binding
T1 sequence (P00374 1-187): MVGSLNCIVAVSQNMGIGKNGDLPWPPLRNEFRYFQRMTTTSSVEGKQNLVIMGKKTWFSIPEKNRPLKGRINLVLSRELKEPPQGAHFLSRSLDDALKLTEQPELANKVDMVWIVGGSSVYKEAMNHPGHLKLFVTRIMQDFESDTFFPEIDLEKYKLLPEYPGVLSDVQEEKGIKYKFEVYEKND

[3] = target: T2, MTHF complex (DHCH protein in humans) (Homo sapiens, UniProt P11586); assay: as above; type: binding
T2 sequence (P11586 1-935): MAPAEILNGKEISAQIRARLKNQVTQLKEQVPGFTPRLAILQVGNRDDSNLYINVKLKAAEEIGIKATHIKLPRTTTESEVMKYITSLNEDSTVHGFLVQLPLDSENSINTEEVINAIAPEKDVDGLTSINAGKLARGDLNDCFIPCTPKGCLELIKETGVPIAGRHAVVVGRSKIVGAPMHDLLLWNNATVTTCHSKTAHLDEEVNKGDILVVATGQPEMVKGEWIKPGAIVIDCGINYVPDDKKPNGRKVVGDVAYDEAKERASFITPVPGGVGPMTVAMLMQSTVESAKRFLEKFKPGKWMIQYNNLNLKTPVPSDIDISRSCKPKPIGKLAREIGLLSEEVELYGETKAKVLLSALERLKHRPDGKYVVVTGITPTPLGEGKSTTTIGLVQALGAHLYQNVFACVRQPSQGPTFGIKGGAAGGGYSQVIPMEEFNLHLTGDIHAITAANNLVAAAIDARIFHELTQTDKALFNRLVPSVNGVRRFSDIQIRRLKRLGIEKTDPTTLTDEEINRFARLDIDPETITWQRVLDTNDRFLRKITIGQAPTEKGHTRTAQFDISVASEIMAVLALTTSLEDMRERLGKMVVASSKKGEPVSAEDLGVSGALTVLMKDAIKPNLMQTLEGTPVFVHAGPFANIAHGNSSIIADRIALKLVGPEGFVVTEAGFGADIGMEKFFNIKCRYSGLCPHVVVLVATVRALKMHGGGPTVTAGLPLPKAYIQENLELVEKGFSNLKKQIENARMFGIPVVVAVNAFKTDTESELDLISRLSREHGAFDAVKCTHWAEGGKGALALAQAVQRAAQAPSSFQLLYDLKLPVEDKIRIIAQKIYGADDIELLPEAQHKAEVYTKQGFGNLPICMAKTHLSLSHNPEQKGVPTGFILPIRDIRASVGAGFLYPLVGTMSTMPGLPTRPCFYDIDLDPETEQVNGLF

PTR1 = target: T3, PTR1 (Leishmania major, UniProt Q01782); assay: biochemical; details: competing free ligand 100 μM; bead = immobilized compound of the row; L. major lysate; read-out: % Inhibition of protein binding to bead, PTR-1, L. major
T3 sequence (Q01782 1-288): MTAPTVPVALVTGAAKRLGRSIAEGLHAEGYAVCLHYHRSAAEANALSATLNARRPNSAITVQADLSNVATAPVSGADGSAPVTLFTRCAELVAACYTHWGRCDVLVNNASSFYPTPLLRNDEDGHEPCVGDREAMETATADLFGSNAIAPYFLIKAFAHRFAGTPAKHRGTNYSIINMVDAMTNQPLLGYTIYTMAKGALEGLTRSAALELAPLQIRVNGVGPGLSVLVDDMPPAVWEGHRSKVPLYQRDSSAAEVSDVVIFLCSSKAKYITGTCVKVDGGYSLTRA

TB11.03.0290 = assay: Multitargeted bead mixture competition; type: binding, T. brucei; details: for fold change - vehicle control: protein TB11.03.0290 PROTEIN KINASE, PUTATIVE
[4] = target: inosine-5′-monophosphate dehydrogenase (Tb927.10.16120) (Trypanosoma brucei brucei, UniProt P50098); assay: Multitargeted bead mixture competition; type: binding, T. brucei; details: for fold change: protein TB927.10.16120 INOSINE-5'-MONOPHOSPHATE DEHYDROGENASE, vehicle control = 1
methylene-THF-reductase = methylene-THF-reductase (Homo sapiens, UniProt P42898); assay: Multitargeted bead mixture competition, HeLa cell extract; type: binding
[5] = target: T4, HeLa cell extract proteins (Homo sapiens, UniProt Q9BWD1); type: binding
T4 construct: endogenous in cells; host or cells: HeLa cell extract

[6] = protein LMJF.26.0320 C-1-TETRAH[…]
[7] = protein LMJF.26.0320 C-1-TETRAHYDROFOLATE SYNTHASE
[8] = protein LMJF.06.0860, DIH[…]-T[…]
[9] = HeLa, protein DHFR (SIMILAR TO DIHYDROFOLATE REDUCTASE ISOFORM 2, PARTIAL)
[10] = HeLa, captured protein MTHFD1 (105 KDA PROTEIN.)

SMILES: Nc1nc2cccc(-c3ccccc3)c2n1Cc1ccc(Cl)c(Cl)c1 [compound 3]
- binding and competition to phenylalanine-4-hydroxylase (PAH) [1]: binding and competition
- fold change [1]: 0.81
- percentage of competition from bead binding (TB927.8.6460; multitargeted bead mixture, free ligand 100 μM, T. brucei lysate, TB927.8.6460): 15%
- fold change vs vehicle control (DHCH; [6]): 0.96
- fold change [2]: 1.07
- fold change (DHFR-TS): 1.11
- fold changes relative to vehicle control (DHFR; captured protein DHFR, HeLa): 1.13
- fold changes relative to vehicle control ([3]; HeLa, protein MTHFD1): 1.01
- inhibition at 100 µM (PTR1): < 50%
- percentage of competition from bead binding (TB11.03.0290; multitargeted bead mixture, free ligand 100 μM, T. brucei lysate, TB11.03.0290): 10%
- fold change - vehicle control (TB11.03.0290): 1.06
- fold change [4]: 1
- fold changes relative to vehicle control (methylene-THF-reductase; captured protein MTHFR, HeLa): 1.06

SMILES: Nc1nc2[nH]cc(CCc3ccc(C(=O)N[C@@H](CCC(=O)O)C(=O)O)cc3)c2c(=O)[nH]1 [PTX, pemetrexed]
- binding and competition to phenylalanine-4-hydroxylase (PAH) [1]: binding and competition
- fold change vs vehicle control [1]: 0.28
- fold change (TB927.8.6460; protein TB927.8.6460 HY[…]): 0.66
- fold change (DHCH; [6]): 0.79
- fold change [2]: 0.93
- fold changes relative to vehicle control [5]: 0.82
- fold change relative to vehicle control (DHFR-TS): 1.08
- binding to DHFR (DHFR): did not appear to bind DHFR
- fold changes relative to vehicle control (DHFR): 1.09
- fold changes relative to vehicle control [3]: 0.72
- binding to inosine-5′-monophosphate dehydrogenase (Tb927.10.16120) ([4]; bead mixture, T. brucei lysates): appeared to bind
- fold change [4]: 0.49
- fold changes relative to vehicle control (methylene-THF-reductase): 0.47

SMILES: Nc1nc2c(c(=O)[nH]1)N(C=O)C(CNc1ccc(C(=O)N[C@@H](CCC(=O)O)C(=O)O)cc1)CN2 (stereo partly shown) [LEU, leucovorin]
- fold change vs vehicle control [1]: 0.99
- fold change (TB927.8.6460; protein TB927.8.6460 HYPOTHETICAL PROTEIN): 0.84
- fold change (DHCH; [7]): 0.98
- fold change [2]: 1.05
- fold changes relative to vehicle control ([5]; HeLa, protein ACAT2): 1.06
- fold change relative to vehicle control (DHFR-TS; [8]): 1.39
- fold changes relative to vehicle control (DHFR; [9]): 2.72
- fold changes relative to vehicle control [3, 10]: 0.61
- fold change [4]: 1.11
- fold changes relative to vehicle control (methylene-THF-reductase; protein MTHFR, HeLa): 0.52

SMILES: CCCCCCOc1cccc(Cc2cnc(N)nc2N)c1 [compound 2]
- fold change [1]: 1.1
- fold change vs vehicle control (DHCH; [7]): 0.96
- fold change [2]: 1
- fold change (DHFR-TS): 0.99
- fold changes relative to vehicle control (DHFR; captured protein DHFR, HeLa): 2.77
- fold changes relative to vehicle control ([3]; HeLa, protein MTHFD1): 0.84
- inhibition at 100 µM (PTR1): < 50%
- fold change - vehicle control (TB11.03.0290): 0.99
- fold change [4]: 1.03
- fold changes relative to vehicle control (methylene-THF-reductase; captured protein MTHFR, HeLa): 0.58

SMILES: NCCOCCOCC(=O)Nc1nc2ncc(CNc3ccc(C(=O)NC(CCC(=O)O)C(=O)O)cc3)nc2c(=O)[nH]1 (stereo not shown) [compound 6]
- fold change vs vehicle control [1]: 0.99
- fold change (TB927.8.6460; protein TB927.8.6460 HY[…]): 1.03
- fold change (DHCH; [7]): 0.98
- fold change [2]: 0.89
- fold changes relative to vehicle control ([5]; HeLa, protein ACAT2): 1.17
- fold change relative to vehicle control (DHFR-TS; [8]): 1.19
- fold changes relative to vehicle control (DHFR; [9]): 1.74
- fold changes relative to vehicle control [3, 10]: 0.92
- fold change [4]: 1
- fold changes relative to vehicle control (methylene-THF-reductase; protein MTHFR, HeLa): 0.84

SMILES: CCCCCCOc1ccc(Cc2cnc(N)nc2N)cc1 [compound 1]
- fold change [1]: 1.16
- fold change vs vehicle control (DHCH; [7]): 0.93
- interaction with haloacid dehalogenase-like hydrolase (LmjF.28.1370) ([2]; bead mixture, Leishmania lysates): interacted strongly
- fold change [2]: 0.13
- fold change (DHFR-TS): 0.17
- competition for DHFR-TS (Figure 8a) (DHFR-TS; bead mixture, L. major lysate): competed for DHFR-TS
- binding to DHFR (DHFR; bead mixture, HeLa cell extract): found to bind DHFR
- fold changes relative to vehicle control (DHFR; captured protein DHFR, HeLa): 0.46
- fold changes relative to vehicle control ([3]; HeLa, protein MTHFD1): 0.05
- inhibition at 100 µM (PTR1): < 50%
- fold change - vehicle control (TB11.03.0290): 0.91
- fold change [4]: 0.93
- fold changes relative to vehicle control (methylene-THF-reductase; captured protein MTHFR, HeLa): 0.27

SMILES: NCCCNc1ccc(C(=O)NC(CCC(=O)O)C(=O)O)cc1 (stereo not shown) [compound 7]
- fold change vs vehicle control [1]: 1.02
- fold change (TB927.8.6460; protein TB927.8.6460 HY[…]): 1.04
- fold change (DHCH; [6]): 1.06
- fold change [2]: 1.02
- fold changes relative to vehicle control ([5]; HeLa, protein ACAT2): 1.12
- fold change relative to vehicle control (DHFR-TS; [8]): 1.02
- fold changes relative to vehicle control (DHFR; [9]): 0.98
- fold changes relative to vehicle control [3, 10]: 1
- fold change [4]: 1.04
- fold changes relative to vehicle control (methylene-THF-reductase; protein MTHFR, HeLa): 1
